Measurements published in paper PMC5377825, “Catalytic Determinants of Alkene Production by the Cytochrome P450 Peroxygenase OleTJE” (The Journal of Biological Chemistry, 2017).
Residue numbers refer to the chain shown, from its start. Where two headings read alike, the source gives them in different places.

Key:
Assay in all cases: UV-visible heme spectral titration
Format in all cases: binding
OleTJE (CYP152L1) [1] = biological target: T1, OleTJE (CYP152L1) (Jeotgalicoccus sp. ATCC 8456, UniProt E9NSU2)
T1 construct: gene JEM45_03820; full length, codon-optimized gene in modified pET15b, N-terminal polyhistidine tag with TEV site; tag kept for spectroscopy, cleaved for crystallography; expressed in E. coli C41 (DE3)
T1 sequence (E9NSU2 1-422): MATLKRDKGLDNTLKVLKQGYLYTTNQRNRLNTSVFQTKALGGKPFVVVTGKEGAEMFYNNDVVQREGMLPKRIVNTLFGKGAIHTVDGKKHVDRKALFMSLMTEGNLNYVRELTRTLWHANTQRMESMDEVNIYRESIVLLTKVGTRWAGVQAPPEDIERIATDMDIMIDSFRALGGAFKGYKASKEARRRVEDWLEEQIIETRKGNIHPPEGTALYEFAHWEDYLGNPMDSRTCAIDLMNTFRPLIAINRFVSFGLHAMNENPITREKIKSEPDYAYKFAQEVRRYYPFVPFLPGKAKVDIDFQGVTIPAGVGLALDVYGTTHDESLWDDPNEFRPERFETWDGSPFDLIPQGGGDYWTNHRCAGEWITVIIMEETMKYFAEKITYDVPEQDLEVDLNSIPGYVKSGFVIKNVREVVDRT
Text: (§1) UV-visible heme spectral titration on OleTJE (CYP152L1)

OleTJE (CYP152L1) [2] = biological target: T2, OleTJE (CYP152L1) (Jeotgalicoccus sp. ATCC 8456, UniProt E9NSU2, F79A)
T2 construct: gene JEM45_03820; full length, codon-optimized gene in modified pET15b, N-terminal polyhistidine tag with TEV site; tag kept for spectroscopy, cleaved for crystallography; expressed in E. coli C41 (DE3)
T2 sequence (E9NSU2 1-422 F79A): T1 sequence (E9NSU2 1-422) with F79A
Text: as §1

OleTJE (CYP152L1) [3] = biological target: T3, OleTJE (CYP152L1) (Jeotgalicoccus sp. ATCC 8456, UniProt E9NSU2, F79W)
T3 construct: gene JEM45_03820; full length, codon-optimized gene in modified pET15b, N-terminal polyhistidine tag with TEV site; tag kept for spectroscopy, cleaved for crystallography; expressed in E. coli C41 (DE3)
T3 sequence (E9NSU2 1-422 F79W): T1 sequence (E9NSU2 1-422) with F79W
Text: as §1

OleTJE (CYP152L1) [4] = biological target: T4, OleTJE (CYP152L1) (Jeotgalicoccus sp. ATCC 8456, UniProt E9NSU2, F79Y)
T4 construct: gene JEM45_03820; full length, codon-optimized gene in modified pET15b, N-terminal polyhistidine tag with TEV site; tag kept for spectroscopy, cleaved for crystallography; expressed in E. coli C41 (DE3)
T4 sequence (E9NSU2 1-422 F79Y): T1 sequence (E9NSU2 1-422) with F79Y
Text: as §1

OleTJE (CYP152L1) [5] = biological target: T5, OleTJE (CYP152L1) (Jeotgalicoccus sp. ATCC 8456, UniProt E9NSU2, H85Q)
T5 construct: gene JEM45_03820; full length, codon-optimized gene in modified pET15b, N-terminal polyhistidine tag with TEV site; tag kept for spectroscopy, cleaved for crystallography; expressed in E. coli C41 (DE3)
T5 sequence (E9NSU2 1-422 H85Q): T1 sequence (E9NSU2 1-422) with H85Q
Text: as §1

OleTJE (CYP152L1) [6] = biological target: T6, OleTJE (CYP152L1) (Jeotgalicoccus sp. ATCC 8456, UniProt E9NSU2, R245E); settings: read-out: Fatty acid Kd (HS) / C10:0
T6 construct: gene JEM45_03820; full length, codon-optimized gene in modified pET15b, N-terminal polyhistidine tag with TEV site; tag kept for spectroscopy, cleaved for crystallography; expressed in E. coli C41 (DE3)
T6 sequence (E9NSU2 1-422 R245E): T1 sequence (E9NSU2 1-422) with R245E
Text: as §1

[7] = read-out: Fatty acid Kd (HS) / C20:0
[8] = read-out: Fatty acid Kd (HS) / C12:0
[9] = read-out: Fatty acid Kd (HS) / C14:0
[10] = read-out: Fatty acid Kd (HS) / C10:0
[11] = read-out: Fatty acid Kd (HS) / C18:0
[12] = read-out: Fatty acid Kd (HS) / C16:0

## CCCCCCCCCCCCCCCCCCCC(=O)O [C20:0, eicosanoic acid]
OleTJE (CYP152L1) [1]; [7]
  Kd: 4.43 ± 0.19 µM
OleTJE (CYP152L1) [2]; [7]
  Kd: 3.4 ± 0.3 µM
OleTJE (CYP152L1) [3]; [7]
  Kd: 4.41 ± 0.27 µM
OleTJE (CYP152L1) [4]; [7]
  Kd: 4.25 ± 0.21 µM
OleTJE (CYP152L1) [5]; [7]
  Kd: 5.27 ± 0.05 µM

## CCCCCCCCCCCC(=O)O [C12:0, dodecanoic acid]
OleTJE (CYP152L1) [1]; [8]
  Kd: 11.7 ± 0.43 µM
OleTJE (CYP152L1) [2]; [8]
  Kd: 55 ± 4.8 µM
OleTJE (CYP152L1) [3]; [8]
  Kd: 106 ± 9 µM
OleTJE (CYP152L1) [4]; [8]
  Kd: 196 ± 5 µM
OleTJE (CYP152L1) [5]; [8]
  Kd: 37.3 ± 2.5 µM

## CCCCCCCCCCCCCC(=O)O [C14:0, tetradecanoic acid]
OleTJE (CYP152L1) [1]; [9]
  Kd: 1.45 ± 0.05 µM
OleTJE (CYP152L1) [2]; [9]
  Kd: 39.1 ± 2.5 µM
OleTJE (CYP152L1) [3]; [9]
  Kd: 24.1 ± 0.9 µM
OleTJE (CYP152L1) [4]; [9]
  Kd: 30.7 ± 1 µM
OleTJE (CYP152L1) [5]; [9]
  Kd: 10.5 ± 0.1 µM

## CCCCCCCCCC(=O)O [C10:0, decanoic acid]
OleTJE (CYP152L1) [1]; [10]
  Kd: 47.1 ± 2.1 µM
OleTJE (CYP152L1) [2]; [10]
  Kd: 465 ± 11 µM
OleTJE (CYP152L1) [6]
  Kd: 1260 ± 160 µM

## CCCCCCCCCCCCCCCCCC(=O)O [C18:0, octadecanoic acid]
OleTJE (CYP152L1) [1]; [11]
  Kd: 4.09 ± 0.16 µM
OleTJE (CYP152L1) [2]; [11]
  Kd: 8.7 ± 0.5 µM
OleTJE (CYP152L1) [3]; [11]
  Kd: 4.52 ± 0.2 µM
OleTJE (CYP152L1) [5]; [11]
  Kd: 5.92 ± 0.08 µM

## CCCCCCCCCCCCCCCC(=O)O [C16:0, hexadecanoic acid]
OleTJE (CYP152L1) [1]; [12]
  Kd: 1.73 ± 0.08 µM
OleTJE (CYP152L1) [2]; [12]
  Kd: 22.6 ± 1.9 µM
OleTJE (CYP152L1) [3]; [12]
  Kd: 12.7 ± 0.7 µM
OleTJE (CYP152L1) [5]; [12]
  Kd: 5.36 ± 0.18 µM
